Legend:
opiate receptor sites = conditions: isolated guinea pig ileum twitch response, dose response curve compared with Met enkephalin
Excerpt: The test used for the detection of their agonist activity at opiate receptor sites is that employing the transmurally stimulates guinea pig ileum preparation described in Kosterlitz et al., Brit. J. Pharmacol, and Chemotherapy 33. 266-276 (1968). […] Exp. Ther. 125, 237 (1959) and by the rat tail flick test (intravenous administration) according to Jansen et al., Arzneim Forsch. 13, 266 (1963).
In the above mentioned test method of Kosterlitz et al male or female guinea pigs (Duncan Hartley strain) are killed by a blow on the head and a portion of the ileum removed and set up in an isolated organ bath of 50 ml volume. A `twitch` response is produced by low frequency (0.1 Hz) stimulation with 0.5 msec rectilinear pulses. A test compound is dissolved in distilled water to produce a stock solution of concentration 1 mg/ml. Serial dilutions are carried out using Krebs solution to produce concentrations of 10 μg, 1 μg and 0.1 μg/ml. The compound is tested by adding between 0.1-0.3 ml of the solutions to the organ bath. A dose response curve is then drawn and compared with that for Met enkephalin.

mouse = mouse phenyl-quinone anti writhing test of Hendershot et al (H & F); assay type: in vivo; conditions: i.v.
Excerpt: (§1) J. Pharmacol, and Chemotherapy 33. 266-276 (1968). […] 13, 266 (1963).

rat = rat tail flick test (R.T.F.), intravenous administration; assay type: in vivo; conditions: hot water 55° as nociceptive stimulus, i.v.
Description: as §1
In the rat tail flick test hot water (maintained at 55°±1°C.) is used as the nociceptive stimulus.

## CC(=O)NCCNC(=O)[C@H](Cc1ccccc1)NC(=O)CNC(=O)[C@@H](C)NC(=O)[C@@H](N)Cc1ccc(O)cc1 [Example 1, L-Tyrosyl-D-alanylglycyl-L-phenylalanin-2-acetamidoethylamide]
Opiate receptor sites
  G.P.I. Potency (X Met enkephalin): 2.6 X Met enkephalin
mouse
  H & F ED50: 0.01 mg/kg

## C[C@@H](NC(=O)[C@@H](N)Cc1ccc(O)cc1)C(=O)NCC(=O)N(C)[C@@H](Cc1ccccc1)C(=O)NCCCN(C)C [Example 2, L-Tyrosyl-D-alanylglycyl-N-methyl-L-phenylalanine-3-dimethylaminopropylamide]
Opiate receptor sites
  G.P.I. Potency (X Met enkephalin): 7.2 X Met enkephalin
mouse
  H & F ED50: 0.28 mg/kg
rat
  R.T.F. ED50: 2.0 mg/kg

## C[C@@H](NC(=O)[C@@H](N)Cc1ccc(O)cc1)C(=O)NCC(=O)N(C)[C@@H](Cc1ccccc1)C(=O)NCCN(C)C [Example 4, L-Tyrosyl-D-alanylglycyl-N-methyl-L-phenylalanine-2-dimethylaminoethylamide]
Opiate receptor sites
  G.P.I. Potency (X Met enkephalin): 8.5 X Met enkephalin
mouse
  H & F ED50: 0.003 mg/kg
rat
  R.T.F. ED50: 1.4 mg/kg

## C[C@@H](NC(=O)[C@@H](N)Cc1ccc(O)cc1)C(=O)NCC(=O)N(C)[C@@H](Cc1ccccc1)C(=O)NCCN [Example 6, L-Tyrosyl-D-alanylglycyl-N-methyl-L-phenylalanine-2-aminoethylamide]
Opiate receptor sites
  G.P.I. Potency (X Met enkephalin): 13.0 X Met enkephalin
mouse
  H & F ED50: 0.028 mg/kg
rat
  R.T.F. ED50: 0.37 mg/kg

## C[C@@H](NC(=O)[C@@H](N)Cc1ccc(O)cc1)C(=O)NCC(=O)N(C)[C@@H](Cc1ccccc1)C(=O)NCCCC(=O)N(C)c1ccccc1 [Example 19, HTyrDAlaGlyMePheNH(CH2)3 CONMePh]
Opiate receptor sites
  G.P.I. Potency (X Met enkephalin): 23.2 X Met enkephalin

## C[C@@H](NC(=O)[C@@H](N)Cc1ccc(O)cc1)C(=O)NCC(=O)N(C)[C@@H](Cc1ccccc1)C(=O)NCC[N+](C)(C)[O-] [Example 22, HTyrDAlaGlyMePheNH(CH 2)2 N(O)Me2]
Opiate receptor sites
  G.P.I. Potency (X Met enkephalin): 6.5 X Met enkephalin

Reference: US4178371A, “Tetrapeptide derivatives” (Reckitt & Colman Products Limited, priority 1977, dated 1979)
